The NIST ThermoML archive (doi:10.1021/je049544x)
± gives the expanded uncertainty stated by the source.

Tests used:
[1] = Liquid; for mass density / speed of sound: 298.15 K, 101.3 kPa; for speed of sound: Sing-around technique in a fixed-path interferometer
[2] = refractive index (Na D-line) (dimensionless); conditions: 298.15 K; 101.33 kPa; Liquid; Standard Abbe refractometry
[3] = xn = mol fraction of the nth substance listed; conditions: 298.15 K, 101.3 kPa, Liquid; for speed of sound: Sing-around technique in a fixed-path interferometer
[4] = refractive index (Na D-line) (dimensionless); xn = mol fraction of the nth substance listed; conditions: 298.15 K, 101.3 kPa, Liquid, Standard Abbe refractometry

C=COC(C)=O [vinyl acetate]
Conditions | mass density [kg/m3] | refractive index | speed of sound [m/s]
[1] | 925.59 ± 0.37 | – | 1115.6 ± 1.2
[2] | – | 1.39253 ± 0.00073 | –

Conditions | vapor or sublimation pressure [kPa]
[1], 346.1 K | 101.3 ± 0.4

CCOC(=O)OCC [diethyl carbonate] + CO
Conditions | mass density, [3] [kg/m3] | refractive index, [4] | speed of sound, [3] [m/s]
x2 = 0 | 969 ± 0.25 | 1.38221 ± 0.00072 | 1176.1 ± 1.2
x2 = 0.063 | 964.93 ± 0.26 | 1.38098 ± 0.00072 | 1174.8 ± 1.2
x2 = 0.098 | 962.48 ± 0.26 | 1.38026 ± 0.00072 | 1174.1 ± 1.2
x2 = 0.159 | 958.15 ± 0.27 | 1.37901 ± 0.00072 | 1171.5 ± 1.2
x2 = 0.192 | 955.62 ± 0.27 | 1.37825 ± 0.00072 | 1169.9 ± 1.2
x2 = 0.251 | 950.7 ± 0.28 | 1.3769 ± 0.00072 | 1167 ± 1.2
x2 = 0.302 | 946.14 ± 0.29 | 1.37563 ± 0.00072 | 1164.3 ± 1.2
x2 = 0.371 | 939.23 ± 0.3 | 1.37345 ± 0.00072 | 1160.6 ± 1.2
x2 = 0.415 | 934.4 ± 0.31 | 1.37205 ± 0.00072 | 1158.1 ± 1.2
x2 = 0.453 | 929.92 ± 0.32 | 1.3705 ± 0.00072 | 1155.9 ± 1.2
x2 = 0.49 | 925.16 ± 0.34 | 1.36915 ± 0.00072 | 1153.8 ± 1.2
x2 = 0.543 | 917.68 ± 0.35 | 1.367 ± 0.00072 | 1150.2 ± 1.2
x2 = 0.592 | 910.04 ± 0.36 | 1.36457 ± 0.00072 | 1146.9 ± 1.2
x2 = 0.655 | 898.92 ± 0.38 | 1.36118 ± 0.00072 | 1142.2 ± 1.2
x2 = 0.69 | 892 ± 0.4 | 1.359 ± 0.00072 | 1139.5 ± 1.2
x2 = 0.75 | 878.54 ± 0.42 | 1.35486 ± 0.00072 | 1134.1 ± 1.2
x2 = 0.8 | 865.37 ± 0.45 | 1.3509 ± 0.00072 | 1129.2 ± 1.2
x2 = 0.848 | 850.75 ± 0.47 | 1.34641 ± 0.00072 | 1123.8 ± 1.2
x2 = 0.897 | 833.8 ± 0.51 | 1.34105 ± 0.00072 | 1117.8 ± 1.2
x2 = 0.948 | 812.41 ± 0.55 | 1.3344 ± 0.00072 | 1110.4 ± 1.2

CO [methanol] + CCOC(=O)OCC
x1 = 1
Conditions | mass density [kg/m3] | refractive index | speed of sound [m/s]
[3] | 786.56 ± 0.6 | – | 1101.8 ± 1.2
[4] | – | 1.32634 ± 0.00072 | –

CCOC(=O)OCC [diethyl carbonate]
Conditions | mass density [kg/m3] | refractive index | speed of sound [m/s]
[1] | 969 ± 0.25 | – | 1176.1 ± 1.2
[2] | – | 1.38221 ± 0.00072 | –

Conditions | vapor or sublimation pressure [kPa]
[1], 399.6 K | 101.3 ± 0.3
